Assay results published in PMC8966731 (2022).
Bridge positions count the residues as written; N and C are the ends. Square brackets hold non-standard residues; d marks the D form.

System: SARS-CoV-2 M^pro
Details: 37 °C, up to 1 h

cleaved bond: Gln3-Tyr4, minor, 1 h
Substance: AcyLQYAVLRHKRREC ({CH2CO}-[dY]LQYAVLRHKRREC-NH2; thioether N-14; SMILES CC(C)C[C@@H]1NC(=O)[C@H](C(C)C)NC(=O)[C@H](C)NC(=O)[C@H](Cc2ccc(O)cc2)NC(=O)[C@H](CCC(N)=O)NC(=O)[C@H](CC(C)C)NC(=O)[C@@H](Cc2ccc(O)cc2)NC(=O)CSC[C@@H](C(N)=O)NC(=O)[C@H](CCC(=O)O)NC(=O)[C@H](CCCNC(=N)N)NC(=O)[C@H](CCCNC(=N)N)NC(=O)[C@H](CCCCN)NC(=O)[C@H](Cc2c[nH]cn2)NC(=O)[C@H](CCCNC(=N)N)NC1=O)
